For experiment [1], the target named is T1, Recombinant p62 protein (Homo sapiens, UniProt Q13501).
T1 construct: Recombinant p62 protein was buffer exchanged into Biacore SPR running buffer
As to the kind of experiment: Surface plasmon resonance (SPR) compound binding to immobilised p62. Conditions: recombinant p62, 15° C. The protocol: Example 28: Surface Plasmon Resonance (SPR) Analysis
Recombinant p62 protein was buffer exchanged into Biacore SPR running buffer (Cytiva 100671) using the Slide-A-Lyzer Mini Dialysis system 7K MWCO (Thermo Fisher Scientific, Cat no. 69560). The final protein concentration was determined using the Nanodrop One spectrophotometer (Thermo Fisher Scientific, cat no. ND-ONE-W), with calibration for the dialysis buffer.
The prepared protein was diluted in sodium acetate buffer (NaAc, pH 5.5, Cytiva) to concentrations ranging from approximately 0.25-40 μg/mL. Post-immobilization, the protein required approximately 16 hours of equilibration in running buffer supplemented with 1% DMSO at 15° C. to ensure adequate surface equilibration and protein reorganization.
All SPR experiments were conducted at a constant temperature of 15° C. The SPR chip surface was activated using EDC/NHS for a contact time of 6-10 min at a flow rate of 10 μL/min. This was followed by protein immobilization for 2100 seconds and ethanolamine capping for 420 seconds, both at the same flow rate. Immediately after immobilization, the NH2—REEE peptide was analyzed in Single Cycle Kinetics mode (SCK) to verify surface activity, ensuring it binds the sample with the published affinity (−20 μM by SPR).
For general compound binding studies, experiments were performed at 15° C. using a running buffer composed of 10 mM HEPES, 150 mM NaCl, 1 mM DTT, 0.05% Tween 20, and 1% DMSO at pH 7.4. The test compound was initially prepared at a 20 mM concentration in DMSO and subsequently titrated in 2-fold dilutions. For each assay, 2 μL of the compound was mixed with 198 μL of the running buffer, and the mixture was thoroughly pipetted approximately 15 times for homogenization.
A series of blank injections (0 μM concentration) were included for double referencing, with at least 8 or 16 per plate depending on the format. Typical injection parameters were 120 seconds for association and 180 seconds for dissociation at a flow rate of […]. A four-point solvent correction was prepared with DMSO concentrations ranging from 2% to 0.5% in the buffer. Post each compound injection, the system's needles were washed with 50% DMSO.
Analysis of the SPR data was conducted using the Cytiva Evaluation software. The binding levels at the late time-point of each interaction were corrected for reference, then normalized to percentage bound values to account for variations in immobilization levels, protein molecular weight, and compound molecular weight.
Compound binding studies were carried out according to experimental procedures above and SPR % occupancy was determined and summarized in Table 7.
On the technique in general: SPR reads the build-up and loss of mass on a sensor chip optically.

Experiment [2] relates to p62 puncta in HeLa cells. The experiment can be described thus: p62 puncta assay (immunocytochemistry and imaging, EVOS M7000 or Operetta CLS). It is filed as cell-based. The note with it: Homo sapiens, fold change in p62 puncta levels relative to DMSO control, 24 hr. As to the method:
HeLa cells were seeded in coated 96-well plates (10,000 cells) and allowed to adhere overnight. After 24 hours of treatment with either vehicle (DMSO) or test compounds, the media was discarded, and cells were rinsed with ice-cold 1×PBS before fixation by 4% formaldehyde or paraformaldehyde for 20 min. Cells were then washed with 1×PBS and permeabilized with 0.1% Triton X-100 in PBS for 20 min and blocked with Blocking Buffer in PBS for 1 hour. The cells were incubated thereafter for 1 hour with anti-p62 primary antibody in Blocking Buffer, followed by incubation with secondary antibody for 1 hour. DAPI dye was used to visualize nuclei of fixed cells. The blocking buffer used were 5% Fetal Bovine Serum (FBS, ThermoFIsher Scientific, 10270106) and Li-cor Intercept (PBS) Blocking Buffer (Li-cor, 927-70001). The primary antibody used was mouse anti-p62 primary antibody (Novus Biologicals, H00008878-MO1). The secondary antibodies used were goat anti-mouse Alexa Fluor Plus 488 secondary antibody (Invitrogen, GOXMS) and goat anti-mouse Alexa Fluor 488 secondary antibody (Invitrogen, A-11029). The DAPI dyes used were DAPI dye (Invitrogen, 62248) and DAPI dye (Invitrogen, D1306).
For the EVOS M7000 System, cells were imaged on the EVOS M7000 microscope using a 20× air objective (Nikon, N.A 0.45). DAPI and p62 channels were illuminated with LED light cubes using integrated hard-coated filter sets for DAPI (357/447 nm) and GFP (470/525 nm) respectively. Images were analysed for p62 puncta count on the Celeste 6.0 software.
For the Operetta CLS System, cells were imaged on the Operetta CLS using a 63× water objective on the DAPI and Alexa 488 channels. Images were analysed for p62 puncta count on the Harmony 5.1 software.
HeLa cells were treated with compounds for 24 hours to evaluate the effect of these compounds on p62 puncta activity. The resulting changes in levels of p62 puncta were assessed by imaging, either on the EVOS M7000 or Operetta CLS systems as described in experimental procedures. The fold change of p62 puncta levels induced by compound treatment relative to vehicle control (DMSO) was determined and summarized in Table 10.

The fold induction is the signal under treatment as a multiple of the control signal. A high value points to a large rise in signal.

Molecules are shown by their SMILES.

T1 sequence (Q13501 whole entry, species assumed): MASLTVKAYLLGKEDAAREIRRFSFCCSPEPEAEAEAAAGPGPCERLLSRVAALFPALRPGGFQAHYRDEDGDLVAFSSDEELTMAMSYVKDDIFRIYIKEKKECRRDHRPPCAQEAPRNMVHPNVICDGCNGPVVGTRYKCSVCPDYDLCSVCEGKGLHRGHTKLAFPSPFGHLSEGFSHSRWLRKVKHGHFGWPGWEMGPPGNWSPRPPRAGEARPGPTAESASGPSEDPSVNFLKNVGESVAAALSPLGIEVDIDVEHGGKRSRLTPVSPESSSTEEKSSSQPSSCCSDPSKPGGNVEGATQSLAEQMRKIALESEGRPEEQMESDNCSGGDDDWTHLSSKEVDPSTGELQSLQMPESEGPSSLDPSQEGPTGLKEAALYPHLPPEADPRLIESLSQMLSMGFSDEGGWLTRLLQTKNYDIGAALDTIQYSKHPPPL

For the compound `OCCNCc1ccc2cc(CCc3ccc(F)cc3)oc2c1` [Compound 49, 2-(((2-(4-fluorophenethyl)benzofuran-6-yl)methyl)amino)ethan-1-ol], the receptor occupancy at 100 µM in experiment [1] lay within 30 to 70%. The fold induction at 5 µM in experiment [2] was > 2.

In the case of `OCCNCc1ccc2cc(Cc3ccc(F)cc3)oc2c1` [compound 12], the receptor occupancy at 100 µM in experiment [1] is > 70%. Besides, the fold induction at 5 µM in experiment [2] was > 2.

Turning to `Cc1c(Cc2ccccc2)oc2cc(CNCCO)ccc12` [Compound 42, 2-(((2-benzyl-3-methylbenzofuran-6-yl)methyl)amino)ethan-1-ol], the receptor occupancy at 100 µM in experiment [1] fell in the range of 30 to 70%. The fold induction at 5 µM in experiment [2] was < 2.

Turning to `OCCNCc1ccc2cc(-c3ccccc3)oc2c1` [Compound 2, 2-(((2-phenylbenzofuran-6-yl)methyl)amino)ethan-1-ol], the receptor occupancy at 100 µM in experiment [1] was 30 to 70%. Further, the fold induction at 5 µM in experiment [2] is > 2.

Regarding `OCCNCc1ccc2cc(Cc3ccccc3)oc2c1` [compound 1], in experiment [1], the receptor occupancy at 100 µM is < 30%. Moreover, in experiment [2], the fold induction at 5 µM was > 2.

As for `OCCNCc1ccc2cc(Cc3ccc(Cl)cc3)oc2c1` [Compound 13, 2-(((2-(4-chlorobenzyl)benzofuran-6-yl)methyl)amino)ethan-1-ol], the receptor occupancy at 100 µM in experiment [1] is > 70%. Besides, in experiment [2], the fold induction at 5 µM is > 2.

Source of the values: patent publication US20250282742A1, “BENZOFURAN DERIVATIVES FOR TARGETING AUTOPHAGY” (Automera PTE. LTD, priority 2024, published 2025).
